Data on five compounds can be found in ChEMBL document CHEMBL2074404, “Regulation of multidrug resistance-associated protein 2 (ABCC2) by the nuclear receptors pregnane X receptor, farnesoid X-activated receptor, and constitutive androstane receptor” (J Biol Chem, 2002).

For series [1], the target named is T1, ATP-binding cassette sub-family C member 2 (Homo sapiens, UniProt Q92887). In words: (§1) TP_TRANSPORTER: Northern blot in vitro, primary hepatocytes. The series is classed as functional, cell-based, Hepatocyte.
T1 sequence (Q92887 whole entry): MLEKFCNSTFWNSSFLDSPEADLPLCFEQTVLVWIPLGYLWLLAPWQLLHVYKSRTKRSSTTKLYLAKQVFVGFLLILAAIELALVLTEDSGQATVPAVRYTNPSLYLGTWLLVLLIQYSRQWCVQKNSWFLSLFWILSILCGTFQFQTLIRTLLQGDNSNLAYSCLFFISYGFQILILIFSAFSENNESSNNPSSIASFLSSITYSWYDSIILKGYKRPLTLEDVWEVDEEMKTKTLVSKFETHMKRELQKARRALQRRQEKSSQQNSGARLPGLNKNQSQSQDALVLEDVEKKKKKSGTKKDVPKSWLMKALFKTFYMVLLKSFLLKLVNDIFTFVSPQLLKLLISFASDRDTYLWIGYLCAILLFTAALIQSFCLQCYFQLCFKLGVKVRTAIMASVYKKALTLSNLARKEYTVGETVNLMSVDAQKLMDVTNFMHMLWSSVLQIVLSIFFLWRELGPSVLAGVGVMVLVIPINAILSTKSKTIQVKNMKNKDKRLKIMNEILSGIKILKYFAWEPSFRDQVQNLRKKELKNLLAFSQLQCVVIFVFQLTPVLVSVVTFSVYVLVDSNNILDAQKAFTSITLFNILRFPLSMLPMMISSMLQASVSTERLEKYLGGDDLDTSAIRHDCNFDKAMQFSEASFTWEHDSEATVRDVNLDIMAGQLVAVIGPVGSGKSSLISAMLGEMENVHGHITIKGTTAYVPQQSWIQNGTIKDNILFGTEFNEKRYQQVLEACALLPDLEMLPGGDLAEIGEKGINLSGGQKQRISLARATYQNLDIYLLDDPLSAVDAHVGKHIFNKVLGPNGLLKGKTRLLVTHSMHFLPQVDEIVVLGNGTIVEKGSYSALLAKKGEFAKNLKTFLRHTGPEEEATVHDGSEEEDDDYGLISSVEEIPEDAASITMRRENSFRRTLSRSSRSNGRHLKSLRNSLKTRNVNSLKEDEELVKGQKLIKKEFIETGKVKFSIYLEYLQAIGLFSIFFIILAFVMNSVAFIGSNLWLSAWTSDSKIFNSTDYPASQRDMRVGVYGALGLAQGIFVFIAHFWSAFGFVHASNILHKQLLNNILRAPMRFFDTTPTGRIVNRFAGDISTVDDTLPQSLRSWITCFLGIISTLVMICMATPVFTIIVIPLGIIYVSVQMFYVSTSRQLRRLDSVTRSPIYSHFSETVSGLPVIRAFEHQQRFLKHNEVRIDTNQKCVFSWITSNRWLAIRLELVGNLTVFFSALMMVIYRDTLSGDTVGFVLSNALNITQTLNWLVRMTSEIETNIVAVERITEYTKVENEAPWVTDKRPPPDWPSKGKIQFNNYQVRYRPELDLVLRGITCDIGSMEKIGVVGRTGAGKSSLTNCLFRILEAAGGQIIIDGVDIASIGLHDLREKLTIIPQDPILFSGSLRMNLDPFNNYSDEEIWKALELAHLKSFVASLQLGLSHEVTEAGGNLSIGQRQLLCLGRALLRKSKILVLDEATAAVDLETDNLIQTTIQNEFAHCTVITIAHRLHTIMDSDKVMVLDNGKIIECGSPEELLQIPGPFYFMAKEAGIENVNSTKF
In series [2] the target is T1, ATP-binding cassette sub-family C member 2. In words: TP_TRANSPORTER: Northern blot from HepG2 cells. The series is classed as functional, cell-based.
The target of series [3] is ATP-binding cassette sub-family C member 2 (Rattus norvegicus, UniProt Q63120). The description is as §1. The series is classed as functional, cell-based, Hepatocyte.
ATP-binding cassette sub-family C member 2 (Rattus norvegicus, UniProt Q63120), sequence (Q63120 whole entry): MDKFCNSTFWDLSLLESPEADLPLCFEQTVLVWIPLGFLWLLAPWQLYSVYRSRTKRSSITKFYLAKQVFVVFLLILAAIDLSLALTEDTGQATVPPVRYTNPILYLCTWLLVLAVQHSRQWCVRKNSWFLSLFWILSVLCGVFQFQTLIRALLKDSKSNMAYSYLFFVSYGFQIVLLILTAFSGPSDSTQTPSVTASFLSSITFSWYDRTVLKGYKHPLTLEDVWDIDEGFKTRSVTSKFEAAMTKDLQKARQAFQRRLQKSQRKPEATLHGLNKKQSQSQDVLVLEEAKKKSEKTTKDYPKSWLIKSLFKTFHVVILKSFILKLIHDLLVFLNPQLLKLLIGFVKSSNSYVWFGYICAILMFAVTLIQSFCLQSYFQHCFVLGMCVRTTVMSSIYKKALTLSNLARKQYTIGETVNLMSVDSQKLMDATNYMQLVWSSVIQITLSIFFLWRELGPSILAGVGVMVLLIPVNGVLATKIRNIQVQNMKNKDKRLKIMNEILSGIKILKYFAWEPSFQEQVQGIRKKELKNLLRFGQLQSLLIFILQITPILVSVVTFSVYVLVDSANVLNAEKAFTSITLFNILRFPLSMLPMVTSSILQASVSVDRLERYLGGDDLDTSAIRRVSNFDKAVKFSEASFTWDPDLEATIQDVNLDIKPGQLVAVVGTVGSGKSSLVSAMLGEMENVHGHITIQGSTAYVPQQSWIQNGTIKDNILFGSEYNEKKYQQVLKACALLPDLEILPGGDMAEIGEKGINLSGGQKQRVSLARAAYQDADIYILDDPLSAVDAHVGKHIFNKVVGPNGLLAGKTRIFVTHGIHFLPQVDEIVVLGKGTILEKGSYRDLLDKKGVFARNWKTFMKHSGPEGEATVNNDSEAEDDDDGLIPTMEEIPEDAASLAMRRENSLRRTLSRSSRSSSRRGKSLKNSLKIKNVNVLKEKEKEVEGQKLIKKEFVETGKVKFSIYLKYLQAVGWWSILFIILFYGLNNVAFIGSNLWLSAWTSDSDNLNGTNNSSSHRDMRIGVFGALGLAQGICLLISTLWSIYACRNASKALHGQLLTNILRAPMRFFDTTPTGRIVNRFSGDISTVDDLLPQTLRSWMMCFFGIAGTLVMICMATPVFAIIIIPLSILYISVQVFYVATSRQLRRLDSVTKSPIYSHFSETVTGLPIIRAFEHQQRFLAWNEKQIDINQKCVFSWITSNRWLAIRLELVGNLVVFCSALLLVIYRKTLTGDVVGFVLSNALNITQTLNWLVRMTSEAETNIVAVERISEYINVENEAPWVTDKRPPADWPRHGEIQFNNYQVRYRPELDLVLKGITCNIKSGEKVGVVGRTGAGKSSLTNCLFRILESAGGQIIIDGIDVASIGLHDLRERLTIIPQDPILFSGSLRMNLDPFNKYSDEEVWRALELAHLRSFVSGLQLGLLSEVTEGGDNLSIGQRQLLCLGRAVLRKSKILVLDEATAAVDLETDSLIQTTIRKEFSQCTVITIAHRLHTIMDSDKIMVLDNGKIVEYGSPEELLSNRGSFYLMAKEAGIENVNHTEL
The next series has as its target T2, Bile salt export pump (Rattus norvegicus, UniProt O70127).
T2 sequence (O70127 whole entry): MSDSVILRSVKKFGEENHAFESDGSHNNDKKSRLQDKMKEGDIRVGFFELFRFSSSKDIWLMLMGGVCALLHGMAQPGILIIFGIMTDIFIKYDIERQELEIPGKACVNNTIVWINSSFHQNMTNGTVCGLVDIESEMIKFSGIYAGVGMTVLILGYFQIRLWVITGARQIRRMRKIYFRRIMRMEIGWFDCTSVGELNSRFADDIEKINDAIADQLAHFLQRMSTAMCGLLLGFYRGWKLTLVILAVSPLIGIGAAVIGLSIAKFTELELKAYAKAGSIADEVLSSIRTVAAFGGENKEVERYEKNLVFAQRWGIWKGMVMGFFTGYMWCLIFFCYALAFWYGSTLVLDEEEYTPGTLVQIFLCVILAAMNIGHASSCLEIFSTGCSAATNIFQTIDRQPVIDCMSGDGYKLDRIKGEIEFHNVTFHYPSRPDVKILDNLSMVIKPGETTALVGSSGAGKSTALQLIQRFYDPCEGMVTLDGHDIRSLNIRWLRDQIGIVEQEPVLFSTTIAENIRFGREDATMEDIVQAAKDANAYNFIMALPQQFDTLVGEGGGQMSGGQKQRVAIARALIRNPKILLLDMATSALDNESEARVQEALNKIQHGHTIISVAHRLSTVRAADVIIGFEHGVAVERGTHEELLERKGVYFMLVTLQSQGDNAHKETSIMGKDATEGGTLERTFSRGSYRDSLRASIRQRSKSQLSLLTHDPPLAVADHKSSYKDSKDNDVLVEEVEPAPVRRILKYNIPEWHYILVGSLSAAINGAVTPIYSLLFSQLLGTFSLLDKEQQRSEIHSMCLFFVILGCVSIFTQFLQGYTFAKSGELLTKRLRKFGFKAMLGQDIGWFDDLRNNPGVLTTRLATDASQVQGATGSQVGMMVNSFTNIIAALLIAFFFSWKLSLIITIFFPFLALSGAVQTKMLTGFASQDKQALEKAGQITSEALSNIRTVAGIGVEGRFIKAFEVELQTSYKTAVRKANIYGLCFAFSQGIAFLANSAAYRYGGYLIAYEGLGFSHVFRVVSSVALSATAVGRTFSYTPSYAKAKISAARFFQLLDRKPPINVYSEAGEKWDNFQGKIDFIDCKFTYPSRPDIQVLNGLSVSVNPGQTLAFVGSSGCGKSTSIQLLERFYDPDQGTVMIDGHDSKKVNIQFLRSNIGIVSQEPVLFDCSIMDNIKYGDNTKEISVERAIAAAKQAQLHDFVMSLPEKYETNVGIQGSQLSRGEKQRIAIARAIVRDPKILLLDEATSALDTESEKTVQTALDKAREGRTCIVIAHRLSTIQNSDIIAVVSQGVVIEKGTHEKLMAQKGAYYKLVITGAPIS
The description is as §1. It counts as functional, cell-based, Hepatocyte.

For series [4], the target named is ATP-binding cassette sub-family C member 2 (Mus musculus, UniProt Q8VI47). The series is described as §1. The series is classed as functional, cell-based, Hepatocyte.
ATP-binding cassette sub-family C member 2 (Mus musculus, UniProt Q8VI47), sequence (Q8VI47 whole entry): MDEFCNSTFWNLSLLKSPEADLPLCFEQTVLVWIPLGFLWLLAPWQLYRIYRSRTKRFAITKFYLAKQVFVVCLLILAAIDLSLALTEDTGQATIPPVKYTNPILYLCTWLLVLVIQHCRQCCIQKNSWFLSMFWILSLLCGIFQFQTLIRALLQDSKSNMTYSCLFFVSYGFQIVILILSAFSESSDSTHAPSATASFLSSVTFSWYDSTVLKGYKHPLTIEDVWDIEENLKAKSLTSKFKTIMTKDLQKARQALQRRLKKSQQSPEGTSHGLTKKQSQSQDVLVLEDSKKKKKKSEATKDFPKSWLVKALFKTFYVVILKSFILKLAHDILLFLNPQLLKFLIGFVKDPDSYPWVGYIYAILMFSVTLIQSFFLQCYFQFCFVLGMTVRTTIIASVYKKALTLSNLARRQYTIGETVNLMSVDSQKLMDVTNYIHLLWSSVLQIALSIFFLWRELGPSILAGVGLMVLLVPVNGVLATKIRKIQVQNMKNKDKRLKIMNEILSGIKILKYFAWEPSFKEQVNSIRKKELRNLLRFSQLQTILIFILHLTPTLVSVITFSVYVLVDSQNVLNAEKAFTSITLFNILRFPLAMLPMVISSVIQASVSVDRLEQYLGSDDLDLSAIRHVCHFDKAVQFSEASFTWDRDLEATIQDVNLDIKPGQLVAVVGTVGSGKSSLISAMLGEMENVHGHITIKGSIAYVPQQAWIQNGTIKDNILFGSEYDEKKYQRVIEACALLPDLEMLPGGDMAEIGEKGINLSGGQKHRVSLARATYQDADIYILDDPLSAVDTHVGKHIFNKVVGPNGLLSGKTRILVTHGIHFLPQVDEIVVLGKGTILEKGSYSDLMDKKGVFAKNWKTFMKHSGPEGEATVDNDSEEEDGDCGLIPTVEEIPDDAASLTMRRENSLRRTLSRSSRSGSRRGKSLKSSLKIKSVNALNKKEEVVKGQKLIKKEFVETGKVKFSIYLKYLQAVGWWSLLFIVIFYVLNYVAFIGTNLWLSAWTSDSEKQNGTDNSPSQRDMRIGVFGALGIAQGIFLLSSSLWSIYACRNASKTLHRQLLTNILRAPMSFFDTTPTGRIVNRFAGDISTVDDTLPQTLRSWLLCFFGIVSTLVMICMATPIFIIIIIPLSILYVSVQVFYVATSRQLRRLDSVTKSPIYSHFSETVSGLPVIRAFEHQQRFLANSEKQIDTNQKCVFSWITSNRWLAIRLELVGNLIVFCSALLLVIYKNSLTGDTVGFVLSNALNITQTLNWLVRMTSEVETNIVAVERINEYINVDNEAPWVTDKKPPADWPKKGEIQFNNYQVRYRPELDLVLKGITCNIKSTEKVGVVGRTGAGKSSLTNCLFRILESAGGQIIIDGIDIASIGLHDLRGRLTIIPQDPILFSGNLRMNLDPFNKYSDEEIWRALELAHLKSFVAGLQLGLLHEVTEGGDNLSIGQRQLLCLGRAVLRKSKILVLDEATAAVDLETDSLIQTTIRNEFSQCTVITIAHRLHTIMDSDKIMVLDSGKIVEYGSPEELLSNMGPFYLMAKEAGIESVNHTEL

Turning to `CC(C)=CCC[C@]1(C)[C@@H](CC=C(C)C)C[C@]2(CC=C(C)C)C(=O)C(CC=C(C)C)=C(O)[C@@]1(C(=O)C(C)C)C2=O`, in series [1], the Activity result is “inducer [+]”.
Turning to `CC(C)c1onc(-c2c(Cl)cccc2Cl)c1COc1ccc(/C=C/c2cccc(C(=O)O)c2)c(Cl)c1`, the Activity result (in series [2]; in series [3]; at Bile salt export pump) was “inducer [+]” in each case.
Consider `C[C@H](CCC(=O)O)[C@H]1CC[C@H]2[C@@H]3[C@H](O)C[C@@H]4C[C@H](O)CC[C@]4(C)[C@H]3CC[C@]12C` [CHENODIOL], for which the Activity result in series [2] was “inducer [+]”.
With `CCC1(c2ccccc2)C(=O)NC(=O)NC1=O` [PHENOBARBITAL], the Activity result (in series [4]; at Bile salt export pump) was “inducer [+]” throughout.
As for `CC(=O)[C@H]1[C@H](C#N)C[C@H]2[C@@H]3CC=C4C[C@@H](O)CC[C@]4(C)[C@H]3CC[C@@]21C` [PREGNENOLONE CARBONITRILE], the Activity entry (in series [4]; in series [3]; at Bile salt export pump) was “inducer [+]” throughout.
